# Test results published in patent US6455075B1, “Method for control of insects on plants and plant tissue” (priority 1996, dated 2002).
# Experiments:
# [1] = tested on: black mold growing on the excrement of the aphids; details: leaves of New Guinea Impatiens
# [2] = tested on: Botrytis and Black Spot Mold; details: flowers wetted with dilute solution before wrapping
# Procedure: In the cut flower industry, the moist flowers are wrapped in plastic prior to placement in the shipping boxes for transit. Ice is added to the boxes in many cases to help keep the flowers fresh during transit. This closed, moist environment is very conducive to Botrytis and Black Spot Mold.
# Botrytis cinerea = details: 0.05% Hydrogen Peroxide mist during entire propagation; one mature leaf from each of 10 cuttings, averaged
# Procedure: In this study 500 zonal geranium cuttings were treated with a mist during the entire course of their propagation. One mature leaf from each of 10 terminal stem cuttings following treatment were sampled and the data was averaged.
# fungus gnats = details: greenhouse treatment; probably due to removal of food source
# Procedure: (§1) To insure objectivity, the greenhouses selected were not all commonly owned and many varieties of roses were included in the testing. […] The effectiveness of the spray was measured by microbial culture of the surfaces of the greenhouse and the leaf surfaces of the treated and untreated plants. […] It is well known that these fungi are airborne.
# Roses = details: after six weeks of observation
# Procedure: as §1
# [3] = tested on: mealy bug, white fly, aphids, spider mites, and thrip
# Procedure: as §1
# [4] = tested on: total mold count, including Botrytis and those molds causing Powdery Mildew
# Procedure: as §1
# living plants = details: dilute solution
# insect populations = tested on: insect populations
# Procedure: (§2) Long and 25 ft. Wide, was filled with various species of household plants, of which most had infestations of some type of insect pest. (Table 2) All other treatments were stopped two weeks prior to treatment with the solution of the present invention. Yellow sticky cards were placed throughout the greenhouse for three days prior to treatment and then were counted for the various species of insects present. The greenhouse was then treated with 12 gallons of a 1:50 dilution of the solution of the present invention using a Dram™ hydraulic sprayer. The house was sprayed on three day intervals for a period of three weeks. Sticky cards were placed in selected areas through out the greenhouse during the three week period.
# [5] = tested on: various species of household plants; details: throughout the three week treatment period, most plants in bloom
# Procedure: as §2
# THRIPS = tested on: THRIPS
# Procedure: as §2
# plant pathogens = details: dilute solution
# [6] = tested on: root rot and other infectious pathogens; details: cuttings dipped in 0.5% hydrogen peroxide, dilute solution in misting system
smiles,measurement,setting,value
OO [hydrogen peroxide],effect on black mold,[1],quickly neutralized the mold
same,appearance of detrimental fungi,[2],prevented and or delayed the appearance of the detrimental fungi
same,MICRO-ORGANISMS/LEAF,Botrytis cinerea,38
same,effect on fungus gnats,fungus gnats,eliminated
same,adverse effects upon the plants,Roses,No adverse effects
same,effect upon insect pests present in the greenhouse,[3]; field trials,lethal effect
same,effect on larval stages of insect pests,[3]; greenhouse treatment of the preceding example,destruction of the larval stages
same,total mold count,[4]; 1 % solution sprayed at least four times,killed or seriously reduced the total mold count
same,treated plants and surfaces free of total fungi (microbial culture),[4]; after the first application of 1 % hydrogen peroxide,~100%
same,recontamination by fungi (microbial culture),[4]; daily applications of 500 PPM over several weeks,no recontamination by fungi occurred
same,adverse effects on the plants,living plants,no adverse affects
same,reduction of insect populations,insect populations; 10 days and post 5 treatments,marked reduction of insect populations
same,reduction in insect populations,"insect populations; after one treatment, 72 hr card exposure",did not indicate any significant reduction
same,phytotoxicity or other detrimental effect to the plants,[5],no evidence of phytotoxicity
same,reduction of Thrips,"THRIPS; 10 days and post 5 treatments, seven day card exposure",greatly reduced
same,average Thrips present per card,"THRIPS; after subsequent treatments, 72 hour exposure time",7-10
same,plant pathogens present on the surfaces,plant pathogens,either totally eradicated or substantially reduced
same,cutting loss,[6],virtually eliminated cutting loss
